System: ANC
Test: Chemotherapeutic doublet cycle dose modifier (Taxol, Gemzar), ANC marker
Type: in vivo
Settings: ANC of patient on doublet
Excerpt: Gemzar and Taxol are used in this example as dual agents. Table 2 illustrates a method of revising a drug dose in treating a patient with two pharamcologic and non-pharmacological modalities to optimize pharmacologic outcome, e.g., to reduce risk of an adverse drug event while assessing the clinical relevancy and validity of the measured surrogate markers.
Previous Level of Toxicity-Efficacy (PLTE) is a value directly entered such as from a lab report. It is the numerical value of the marker of toxicity or efficacy reported at the previous dose cycle adjustment (evaluated at a specified elapsed time sufficient to capture the nadir of the dose effect). The surrogate marker is selected when the dose modifier is constructed.
Current Level of Toxicity-Efficacy (CLTE) is a value directly entered such as from a lab report. It is the numerical value of the marker of toxicity or efficacy reported with the current dose cycle. The surrogate marker is that value that illustrates the expression of the toxicity or efficacy of the agent on a specific and pre-selected value determined when the dose modifier is constructed. […] If valid, then the value is fully appreciated and the dose modification can be calculated. […]
Projected Marker Agent 1 (Taxol) (PM1) is calculated by a dose modifier. […]
Projected Marker Agent 2 (Gemzar) (PM2) is calculated by a dose modifier. […]

CC(=O)O[C@H]1C(=O)[C@@]2(C)[C@H]([C@H](OC(=O)c3ccccc3)[C@]3(O)C[C@H](OC(=O)[C@H](O)[C@@H](NC(=O)c4ccccc4)c4ccccc4)C(C)=C1C3(C)C)[C@]1(OC(C)=O)CO[C@@H]1C[C@@H]2O [Taxol]
Current Level of Toxicity/CLTEM1 (current cycle total dose Taxol 300, Gemzar 6200, marker 9 days after dose): 1.50 | Previous Level of Toxicity/PLTEM1 (previous cycle total dose Taxol 385, Gemzar 7650): 1.00
